Reference: ChEMBL document CHEMBL4418299, “Compounds useful as csf1 modulators” (2016)

What was measured:
[1] = target: Vascular endothelial growth factor receptor 2 (Homo sapiens, UniProt P35968); test: Displacement of kinase tracer 236 from recombinant human His-tagged KDR cytoplasmic domain (789 to 1356 residues) expressed in baculovirus-infected insect cells measured after 5 hrs by TR-FRET based LanthaScreen assay
[2] = target: Macrophage colony-stimulating factor 1 receptor (Homo sapiens, UniProt P07333); test: Displacement of kinase tracer 236 from recombinant human His-tagged CSF1R cytoplasmic domain (538 to 910 residues) expressed in baculovirus-infected insect cells measured after 5 hrs by TR-FRET based LanthaScreen assay
Sequence of Macrophage colony-stimulating factor 1 receptor (P07333 whole entry, the tested form may be a part): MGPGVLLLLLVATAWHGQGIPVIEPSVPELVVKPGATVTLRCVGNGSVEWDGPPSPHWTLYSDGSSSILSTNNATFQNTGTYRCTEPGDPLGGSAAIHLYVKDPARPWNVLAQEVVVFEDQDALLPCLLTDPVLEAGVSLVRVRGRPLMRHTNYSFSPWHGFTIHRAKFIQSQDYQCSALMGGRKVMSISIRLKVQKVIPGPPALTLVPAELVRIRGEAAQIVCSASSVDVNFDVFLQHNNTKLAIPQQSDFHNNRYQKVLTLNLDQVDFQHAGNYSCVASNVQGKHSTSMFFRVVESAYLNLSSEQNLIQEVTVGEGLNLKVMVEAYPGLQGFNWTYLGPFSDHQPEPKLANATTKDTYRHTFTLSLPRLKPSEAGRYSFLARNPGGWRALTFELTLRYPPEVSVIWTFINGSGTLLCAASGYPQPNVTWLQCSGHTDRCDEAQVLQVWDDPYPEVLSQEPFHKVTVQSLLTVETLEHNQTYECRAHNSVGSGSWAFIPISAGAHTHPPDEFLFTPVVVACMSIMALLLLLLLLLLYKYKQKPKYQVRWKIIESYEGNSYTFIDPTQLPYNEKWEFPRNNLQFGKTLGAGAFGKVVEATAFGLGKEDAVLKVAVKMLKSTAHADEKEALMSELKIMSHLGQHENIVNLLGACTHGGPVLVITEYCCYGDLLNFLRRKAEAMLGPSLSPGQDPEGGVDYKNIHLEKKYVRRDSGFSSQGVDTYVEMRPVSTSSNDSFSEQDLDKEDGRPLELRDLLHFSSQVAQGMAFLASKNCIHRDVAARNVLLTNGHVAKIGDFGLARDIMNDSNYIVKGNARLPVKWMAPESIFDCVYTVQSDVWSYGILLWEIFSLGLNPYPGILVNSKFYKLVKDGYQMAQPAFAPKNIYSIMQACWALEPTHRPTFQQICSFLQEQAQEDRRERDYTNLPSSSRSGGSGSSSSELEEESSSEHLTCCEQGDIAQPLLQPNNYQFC

Sequence of Vascular endothelial growth factor receptor 2 (P35968 whole entry, the tested form may be a part): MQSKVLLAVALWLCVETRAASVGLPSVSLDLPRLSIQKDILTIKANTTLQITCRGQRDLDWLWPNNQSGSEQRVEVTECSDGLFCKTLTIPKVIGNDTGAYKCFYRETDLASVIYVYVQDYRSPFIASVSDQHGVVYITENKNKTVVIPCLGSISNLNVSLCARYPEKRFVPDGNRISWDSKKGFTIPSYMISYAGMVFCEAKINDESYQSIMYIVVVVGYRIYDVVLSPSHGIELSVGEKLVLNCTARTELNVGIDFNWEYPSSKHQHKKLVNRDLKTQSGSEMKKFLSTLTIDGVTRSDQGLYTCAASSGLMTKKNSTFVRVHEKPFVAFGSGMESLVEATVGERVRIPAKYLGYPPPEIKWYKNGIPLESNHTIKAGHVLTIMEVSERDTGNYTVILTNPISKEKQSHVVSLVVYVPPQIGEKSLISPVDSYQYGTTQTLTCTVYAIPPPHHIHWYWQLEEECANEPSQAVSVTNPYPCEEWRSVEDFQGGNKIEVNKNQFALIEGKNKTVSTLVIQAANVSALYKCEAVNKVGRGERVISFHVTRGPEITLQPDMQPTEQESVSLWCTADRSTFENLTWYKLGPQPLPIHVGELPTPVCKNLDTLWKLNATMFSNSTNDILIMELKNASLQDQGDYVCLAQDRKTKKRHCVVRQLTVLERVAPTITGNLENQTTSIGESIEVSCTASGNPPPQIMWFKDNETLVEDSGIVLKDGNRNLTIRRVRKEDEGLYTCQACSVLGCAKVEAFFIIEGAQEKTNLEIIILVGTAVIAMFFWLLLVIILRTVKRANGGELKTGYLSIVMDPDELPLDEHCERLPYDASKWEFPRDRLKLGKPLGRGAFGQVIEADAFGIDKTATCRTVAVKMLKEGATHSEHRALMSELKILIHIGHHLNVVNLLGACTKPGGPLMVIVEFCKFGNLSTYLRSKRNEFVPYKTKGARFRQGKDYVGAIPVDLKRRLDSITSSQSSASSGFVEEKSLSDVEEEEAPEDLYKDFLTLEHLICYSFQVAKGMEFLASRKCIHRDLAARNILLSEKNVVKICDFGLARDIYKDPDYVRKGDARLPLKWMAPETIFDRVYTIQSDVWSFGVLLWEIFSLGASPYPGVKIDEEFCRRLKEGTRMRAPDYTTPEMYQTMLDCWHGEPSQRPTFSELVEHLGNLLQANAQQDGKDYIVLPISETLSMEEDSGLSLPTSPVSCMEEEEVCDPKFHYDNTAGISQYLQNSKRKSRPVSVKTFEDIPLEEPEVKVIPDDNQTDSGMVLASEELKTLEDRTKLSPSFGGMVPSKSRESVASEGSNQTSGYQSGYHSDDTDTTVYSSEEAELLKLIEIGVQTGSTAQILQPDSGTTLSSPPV

| IC50 [1] [nM] | IC50 [2] [nM] | Compound |
| --- | --- | --- |
| > 200 | < 10 | COc1cccc(CC(=O)Nc2ccc(-n3c4c(c5ncnc(N)c53)CCC4)cc2)c1 |
| > 200 | 10 to 200 | COc1ccc(NC(=O)Cc2ccc(-n3c4c(c5ncnc(N)c53)CCC4)cc2)c(F)c1 |
| > 200 | 10 to 200 | Cc1ccc(F)c(NC(=O)Cc2ccc(-n3c4c(c5ncnc(N)c53)COC4)cc2)c1 |
| > 200 | 10 to 200 | Nc1ncnc2c3c(n(-c4ccc(NC(=O)Cc5ccc(C(F)(F)F)nn5)cc4)c12)CCC3 |
| > 200 | 10 to 200 | Nc1ncnc2c3c(n(-c4ccc(CC(=O)Nc5nc(C(F)(F)F)co5)cc4)c12)CCC3 |
| > 200 | 10 to 200 | Nc1ncnc2c3c(n(-c4ccc(NC(=O)Cc5cc(C(F)(F)F)ccc5F)c(F)c4)c12)CCC3 |
| 10 to 200 | < 10 | COc1cc(F)c(CC(=O)Nc2ccc(-n3c4c(c5ncnc(N)c53)CCC4)cc2)c(F)c1 |
| > 200 | < 10 | Nc1ncnc2c3c(n(-c4ccc(NC(=O)Cc5ccc(F)cc5Br)cc4)c12)CCC3 |
| 10 to 200 | < 10 | Nc1ncnc2c3c(n(-c4ccc(CC(=O)Nc5ccc6c(c5)CCC6)cc4)c12)CCC3 |
| 10 to 200 | < 10 | COc1ccc(NC(=O)Cc2ccc(-n3c4c(c5ncnc(N)c53)COC4)cc2)cc1C(F)(F)F |
| > 200 | 10 to 200 | COc1ccc(NC(=O)Cc2ccc(-n3c4c(c5ncnc(N)c53)CCC4)cc2)cn1 |
| > 200 | < 10 | Nc1ncnc2c3c(n(-c4ccc(CC(=O)N5CCOc6ccccc65)cc4)c12)CCC3 |
| > 200 | < 10 | COc1ccc(CC(=O)Nc2ccc(-n3c4c(c5ncnc(N)c53)COC4)cc2)cc1C |
| > 200 | < 10 | COc1cc(-n2c3c(c4ncnc(N)c42)CCC3)ccc1CC(=O)Nc1ccc(Cl)c(Cl)c1 |
| > 200 | 10 to 200 | Nc1ncnc2c3c(n(-c4ccc(CC(=O)Nc5ccc(OC(F)(F)F)cc5)cc4)c12)CCC3 |
| 10 to 200 | < 10 | COc1ccc(NC(=O)Cc2ccc(-n3c4c(c5ncnc(N)c53)CCC4)cc2)cc1C(F)(F)F |
| > 200 | 10 to 200 | Nc1ncnc2c3c(n(-c4ccc(NC(=O)Cc5ccc(Cl)nn5)cc4)c12)CCC3 |
| > 200 | < 10 | Nc1ncnc2c3c(n(-c4ccc(NC(=O)Cc5cc(Cl)ccc5F)cc4)c12)CCC3 |
| > 200 | 10 to 200 | Nc1ncnc2c3c(n(-c4ccc(CC(=O)Nc5ccc(C(F)(F)F)nc5)cc4)c12)CCC3 |
| > 200 | 10 to 200 | COc1cc(CC(=O)Nc2ccc(-n3c4c(c5ncnc(N)c53)COC4)cc2)ccc1C |
| > 200 | < 10 | Nc1ncnc2c3c(n(-c4ccc(NC(=O)Cc5ccc(OC(F)(F)F)cc5)cc4)c12)COC3 |
| > 200 | < 10 | Cc1ccc(CC(=O)Nc2ccc(-n3c4c(c5ncnc(N)c53)CCC4)cc2)cc1F |
| < 10 | < 10 | COc1ccc(CC(=O)Nc2ccc(-n3c4c(c5ncnc(N)c53)CCC4)cc2)cc1Br |
| > 200 | 10 to 200 | COc1ccc(CC(=O)Nc2ccc(-n3c4c(c5ncnc(N)c53)CCC4)cc2)cc1N(C)C |
| > 200 | < 10 | COc1ccc(CC(=O)Nc2ccc(-n3c4c(c5ncnc(N)c53)CCC4)cc2)cc1C(F)(F)F |
| > 200 | 9 | Nc1ncnc2c3c(n(-c4ccc(CC(=O)Nc5ccc(Cl)c(C(F)(F)F)c5)cc4)c12)CCC3 |
| > 200 | 10 to 200 | Nc1ncnc2c3c(n(-c4ccc(CC(=O)Nc5ccc(C(F)(F)F)cn5)cc4)c12)CCC3 |

| IC50 [1] [nM] | IC50 [2] [nM] | Compound |
| --- | --- | --- |
| > 200 | < 10 | Cn1ccc2cc(NC(=O)Cc3ccc(-n4c5c(c6ncnc(N)c64)CCC5)cc3)ccc21 |
| > 200 | < 10 | Nc1ncnc2c3c(n(-c4ccc(NC(=O)Cc5ccc(Cl)cc5F)cc4)c12)CCC3 |
| > 200 | < 10 | Nc1ncnc2c3c(n(-c4ccc(NC(=O)Cc5ccc(C(F)(F)F)nc5)cc4)c12)CCC3 |
| > 200 | < 10 | Nc1ncnc2c3c(n(-c4ccc(CC(=O)Nc5ccc(Cl)c(Cl)c5)cc4)c12)CCC3 |
| > 200 | 10 to 200 | CC(C)c1cn(C)c2ccc(CC(=O)Nc3ccc(-n4c5c(c6ncnc(N)c64)CCC5)cc3)cc12 |
| > 200 | 10 to 200 | Nc1ncnc2c3c(n(-c4ccc(CC(=O)Nc5ccc(C(F)(F)F)nn5)cc4)c12)CCC3 |
| > 200 | 10 to 200 | Nc1ncnc2c3c(n(-c4ccc(NC(=O)Cc5cc(C(F)(F)F)ccc5F)c(F)c4)c12)COC3 |
| > 200 | 10 to 200 | Cn1ccc2cc(CC(=O)Nc3ccc(-n4c5c(c6ncnc(N)c64)COC5)cc3)ccc21 |
| > 200 | > 200 | Nc1ncnc2c3c(n(-c4ccc(CC(=O)NC5CCOCC5)cc4)c12)CCC3 |
| > 200 | 10 to 200 | COc1cc(CC(=O)Nc2ccc(-n3c4c(c5ncnc(N)c53)CCC4)cc2)ccc1F |
| 10 to 200 | < 10 | Cc1ccc(F)c(NC(=O)Cc2ccc(-n3c4c(c5ncnc(N)c53)CCC4)cc2)c1 |
| 10 to 200 | < 10 | Cc1ccc(CC(=O)Nc2ccc(-n3c4c(c5ncnc(N)c53)CCC4)cc2)c(F)c1 |
| > 200 | < 10 | Nc1ncnc2c3c(n(-c4ccc(NC(=O)Cc5ccnc(C(F)(F)F)c5)cc4)c12)CCC3 |
| > 200 | 10 to 200 | Nc1ncnc2c3c(n(-c4ccc(NC(=O)Cc5ccccc5)cc4)c12)CCC3 |
| > 200 | < 10 | Nc1ncnc2c3c(n(-c4ccc(NC(=O)Cc5ccc(Cl)c(C(F)(F)F)c5)cc4)c12)COC3 |
| > 200 | 10 to 200 | Cc1ccc(CC(=O)Nc2ccc(-n3c4c(c5ncnc(N)c53)COC4)cc2)c(F)c1 |
| > 200 | 10 to 200 | Nc1ncnc2c3c(n(-c4ccc(CC(=O)Nc5cc(C(F)(F)F)ccc5F)cc4)c12)COC3 |
| > 200 | > 200 | Nc1ncnc2c3c(n(-c4ccc(NC(=O)c5c[nH]c6ccccc56)cc4)c12)CCC3 |
| > 200 | > 200 | Nc1ncnc2c3c(n(-c4ccc(NC(=O)CCc5c[nH]c6ccccc56)cc4)c12)CCC3 |
| > 200 | 10 to 200 | Nc1ncnc2c3c(n(-c4ccc(CC(=O)Nc5nc(C(F)(F)F)cs5)cc4)c12)CCC3 |
| < 10 | < 10 | CC(C)(C)c1cc(NC(=O)Cc2ccc(-n3c4c(c5ncnc(N)c53)CCC4)cc2)n(-c2ccccc2)n1 |
| > 200 | < 10 | Nc1ncnc2c3c(n(-c4ccc(NC(=O)Cc5ccc(F)cc5)cc4)c12)CCC3 |
| > 200 | < 10 | Nc1ncnc2c3c(n(-c4ccc(NC(=O)Cc5cccc(Cl)c5)cc4)c12)CCC3 |
| > 200 | < 10 | Nc1ncnc2c3c(n(-c4ccc(NC(=O)Cc5ccc(Cl)cc5)cc4)c12)CCC3 |
| > 200 | < 10 | Nc1ncnc2c3c(n(-c4ccc(NC(=O)Cc5cccc(OC(F)(F)F)c5)cc4)c12)CCC3 |
| > 200 | 10 to 200 | Cc1ccc(F)c(CC(=O)Nc2ccc(-n3c4c(c5ncnc(N)c53)COC4)cc2)c1 |
| > 200 | 10 to 200 | COc1ccc(CC(=O)Nc2ccc(-n3c4c(c5ncnc(N)c53)CCC4)cc2F)c(F)c1 |
